Data taken from patent US11286236B2, “Compound, agent and composition for the suppression of cancer growth” (Vector Vitale IP LLC, priority 2018, dated 2022).

What was measured:
[1] = system: Mouse melanoma cells (MM-4 cell line); assay: Cytotoxic effect of E2+85Rbe and antitumor drug added 24 hours apart; format: cell-based
Procedure: The effectiveness of the method of the invention that comprises administering antitumor drugs and ^85Rb-enriched rubidium salt of N-benzoyl-N-(4-toluenesulfonyl)-o-phenylenediamine of formula I was measured in the experiment. […] Both orders were tested: AD administered first (Scheme 2, below), and AD administered second (Scheme 1, below).
Materials and Methods: Mouse melanoma cells (MM-4 cell line) were seeded into 96-well plates (TPP, Italy), in DMEM (Biowest, France) supplemented with 10% newborn calf serum (Biowest, France) and […] gentamicin (Sigma, USA) at a seeding density of 5×10^4 cells/ml. The cells were then cultured in an incubator with a humidified atmosphere of 5% CO2 in air at 37° C. The experiment was carried out in accordance with the three schemes given below. The experiment was started 24 hours after the cells were seeded. For this purpose, the agents used in the method were introduced into the appropriate wells. The following schemes of introduction were used for the study:
Scheme 1) The ^85Rb-enriched rubidium salt of N-benzoyl-N′-(4-toluenesulfonyl)-o-phenylenediamine of formula I was introduced at the first stage in the following amounts: 2.0 μg/ml, 1.0 μg/ml, 0, 5 μg/ml, and one antitumor drug was introduced at the second stage (after 24 hours).
Scheme 2) An AD was introduced at the first stage at doses as indicated in Scheme 1 above and ^85Rb-enriched rubidium salt of N-benzoyl-N′-(4-toluenesulfonyl)-o-phenylenediamine of formula I was introduced at the second stage (after 24 hours) at the following doses: 2.0 μg/ml, 1.0 μg/ml, 0.5 μg/ml.
After all the agents were added into the wells, the cells were incubated at 37° C. and 5% CO2 for another 72 hours (96 hours in total after the cells were seeded).
As in example 2, the cytotoxic effect was determined as the percentage of the cell number with respect to the control after their treatment in accordance with the claimed method. The effects of the drugs were evaluated visually, which allowed us to examine the morphological pattern of the cytotoxic action of the drugs, and by staining the cells with crystal violet, followed by OD measurement at an excitation wavelength of 540 nm using a MultiSkan microplate spectrophotometer.
The effects of the complex action of various doses of the investigated substances were evaluated using the concept of synergistic, additive and antagonistic effects of the drugs, as for Example 2, and calculating CI as described in Example 2.
Each table sets forth the % of MM-4 cells that survived in the presence of the drug doses indicated in the in vitro experiments described above, expressed as a percentage of the cells in the control wells.

[2] = system: Mouse B16 melanoma cells (MM-4 cell line); assay: Cytotoxic/cytostatic activity of E2+85Rbe and antitumor drug added simultaneously; format: cell-based
Procedure: The effects of the complex action of various doses of the investigated substances were evaluated using the concept of synergistic, additive and antagonistic effects of the drugs. The mathematics are detailed below. […] The effects were calculated using the Chou-Talalay method according to the following equation (“CI” refers to the “combination index”) (see T.-C. […] Where both the ^85Rb-enriched rubidium salt (referred to as “E2+^85Rbe”) and an AD were administered, they were administered simultaneously.

## CN(C)/N=N/c1[nH]cnc1C(N)=O [dacarbazine]
[1]; dacarbazine 2.5 μg/ml alone, first stage
  % surviving MM-4 cells: 21 ± 2.4%
[1]; dacarbazine 2.5 μg/ml alone, second stage
  % surviving MM-4 cells: 40.7 ± 0.7%
[1]; dacarbazine 5 μg/ml alone, first stage
  % surviving MM-4 cells: 18.1 ± 0.2%
[1]; dacarbazine 5 μg/ml alone, second stage
  % surviving MM-4 cells: 30 ± 2.4%
[1]; dacarbazine 10 μg/ml alone, first stage
  % surviving MM-4 cells: 11.6 ± 3%
[1]; dacarbazine 10 μg/ml alone, second stage
  % surviving MM-4 cells: 19 ± 4%
[1]; dacarbazine 20 μg/ml alone, first stage
  % surviving MM-4 cells: 7.8 ± 0.5%
[1]; dacarbazine 20 μg/ml alone, second stage
  % surviving MM-4 cells: 12.9 ± 2.9%
[1]; dacarbazine 40 μg/ml alone, first stage
  % surviving MM-4 cells: 3.5 ± 0.7%
[1]; dacarbazine 40 μg/ml alone, second stage
  % surviving MM-4 cells: 8.4 ± 1.2%
[2]; dacarbazine 2.5 μg/ml alone
  % surviving MM-4 cells: 21 ± 2.4%
[2]; dacarbazine 5 μg/ml alone
  % surviving MM-4 cells: 18.1 ± 0.2%
[2]; dacarbazine 10 μg/ml alone
  % surviving MM-4 cells: 11.6 ± 3%
[2]; dacarbazine 20 μg/ml alone
  % surviving MM-4 cells: 7.8 ± 0.5%
[2]; dacarbazine 40 μg/ml alone
  % surviving MM-4 cells: 3.5 ± 0.7%

## COc1cccc2c1C(=O)c1c(O)c3c(c(O)c1C2=O)C[C@@](O)(C(=O)CO)C[C@@H]3O[C@H]1C[C@H](N)[C@H](O)[C@H](C)O1 [doxorubicin]
[1]; doxorubicin 150 ng/ml alone, first stage
  % surviving MM-4 cells: 14.4 ± 1.1%
[1]; doxorubicin 150 ng/ml alone, second stage
  % surviving MM-4 cells: 35.5 ± 0.8%
[1]; doxorubicin 175 ng/ml alone, first stage
  % surviving MM-4 cells: 13 ± 0.1%
[1]; doxorubicin 200 ng/ml alone, first stage
  % surviving MM-4 cells: 9.1 ± 1.1%
[1]; doxorubicin 200 ng/ml alone, second stage
  % surviving MM-4 cells: 24.8 ± 5.5%
[1]; doxorubicin 300 ng/ml alone, first stage
  % surviving MM-4 cells: 3.1 ± 0.1%
[1]; doxorubicin 300 ng/ml alone, second stage
  % surviving MM-4 cells: 12.2 ± 0.5%
[1]; doxorubicin 500 ng/ml alone, first stage
  % surviving MM-4 cells: 0%
[1]; doxorubicin 500 ng/ml alone, second stage
  % surviving MM-4 cells: 5.3 ± 0.9%
[2]; doxorubicin 150 ng/ml alone
  % surviving MM-4 cells: 14.4 ± 1.1%
[2]; doxorubicin 175 ng/ml alone
  % surviving MM-4 cells: 13 ± 0.1%
[2]; doxorubicin 200 ng/ml alone
  % surviving MM-4 cells: 9.1 ± 1.1%
[2]; doxorubicin 300 ng/ml alone
  % surviving MM-4 cells: 3.1 ± 0.1%
[2]; doxorubicin 500 ng/ml alone
  % surviving MM-4 cells: 0%

## CC(=O)O[C@H]1C(=O)[C@@]2(C)[C@H]([C@H](OC(=O)c3ccccc3)[C@]3(O)C[C@H](OC(=O)[C@H](O)[C@@H](NC(=O)c4ccccc4)c4ccccc4)C(C)=C1C3(C)C)[C@]1(OC(C)=O)CO[C@@H]1C[C@@H]2O [paclitaxel]
[1]; paclitaxel 3 ng/ml alone, first stage
  % surviving MM-4 cells: 80 ± 2.3%
[1]; paclitaxel 3 ng/ml alone, second stage
  % surviving MM-4 cells: 87.7 ± 6.7%
[1]; paclitaxel 7.5 ng/ml alone, first stage
  % surviving MM-4 cells: 33.4 ± 1.4%
[1]; paclitaxel 7.5 ng/ml alone, second stage
  % surviving MM-4 cells: 49 ± 1%
[1]; paclitaxel 15 ng/ml alone, second stage
  % surviving MM-4 cells: 37 ± 4.5%
[1]; paclitaxel 30 ng/ml alone, first stage
  % surviving MM-4 cells: 7 ± 0.8%
[1]; paclitaxel 30 ng/ml alone, second stage
  % surviving MM-4 cells: 29.2 ± 4.4%
[1]; paclitaxel 3 μg/ml alone, first stage
  % surviving MM-4 cells: 1.9 ± 0.2%
[2]; paclitaxel 3 ng/ml alone
  % surviving MM-4 cells: 80 ± 2.3%
[2]; paclitaxel 7.5 ng/ml alone
  % surviving MM-4 cells: 33.4 ± 1.4%
[2]; paclitaxel 30 ng/ml alone
  % surviving MM-4 cells: 7 ± 0.8%
[2]; paclitaxel 3 μg/ml alone
  % surviving MM-4 cells: 1.9 ± 0.2%

## CCC1=C[C@@H]2CN(C1)Cc1c([nH]c3ccccc13)[C@@](C(=O)OC)(c1cc3c(cc1OC)N(C)[C@H]1[C@@](O)(C(=O)OC)[C@H](OC(C)=O)[C@]4(CC)C=CCN5CC[C@]31[C@@H]54)C2 [vinorelbine]
[1]; vinorelbine 1 ng/ml alone, first stage
  % surviving MM-4 cells: 10 ± 0.1%
[1]; vinorelbine 1 ng/ml alone, second stage
  % surviving MM-4 cells: 26 ± 2.5%
[1]; vinorelbine 5 ng/ml alone, first stage
  % surviving MM-4 cells: 9.5 ± 0.5%
[1]; vinorelbine 5 ng/ml alone, second stage
  % surviving MM-4 cells: 17.9 ± 0.9%
[1]; vinorelbine 25 ng/ml alone, first stage
  % surviving MM-4 cells: 2 ± 0.8%
[1]; vinorelbine 25 ng/ml alone, second stage
  % surviving MM-4 cells: 7.9 ± 0.5%
[1]; vinorelbine 50 ng/ml alone, first stage
  % surviving MM-4 cells: 2 ± 1%
[1]; vinorelbine 50 ng/ml alone, second stage
  % surviving MM-4 cells: 6.4 ± 0.4%
[1]; vinorelbine 200 ng/ml alone, first stage
  % surviving MM-4 cells: 1%
[1]; vinorelbine 200 ng/ml alone, second stage
  % surviving MM-4 cells: 5.6 ± 0.6%
[2]; vinorelbine 1 ng/ml alone
  % surviving MM-4 cells: 10 ± 0.1%
[2]; vinorelbine 5 ng/ml alone
  % surviving MM-4 cells: 9.5 ± 0.5%
[2]; vinorelbine 25 ng/ml alone
  % surviving MM-4 cells: 2 ± 0.8%
[2]; vinorelbine 50 ng/ml alone
  % surviving MM-4 cells: 2 ± 1%
[2]; vinorelbine 200 ng/ml alone
  % surviving MM-4 cells: 1%
